Measurements: patent US9127040B2, “Regulation of sodium channels by PLUNC proteins” (The University of North Carolina at Chapel Hill, priority 2011, dated 2015)

Experiments:
NL HBECs = assay: ASL height by confocal microscopy in normal lung (NL) HBECs; assay type: cell-based, human; settings: Ringer with 50 mM NaCl exchanged for 100 mM POPSO; 3 h
Protocol: To label airway surface liquid, Ringer containing Texas Red-dextran (2 mg/ml; Invitrogen) was added to human bronchial epithelial culture mucosal surfaces. Perfluorocarbon was added mucosally to prevent evaporation of the airway surface liquid and the culture placed in a chamber containing 100 μl Ringer on the stage of a Leica SP5 confocal microscope with a 63× glycerol immersion objective. 5 points per culture were scanned and an average airway surface liquid height determined. For confocal microscopy human bronchial epithelial cultures were bathed serosally in a modified Ringer solution containing (mM): 116 NaCl, 10 NaHCO3, 5.1 KCl, 1.2 CaCl2, 1.2 MgCl2, 20 TES, 10 glucose, pH 7.4). At all other times, human bronchial epithelial cultures were maintained in a modified BEGM growth medium which contained 24 mM NaHCO3 gassed with 5% CO2.
To label the ASL, PBS containing 10 kDa Rhodamine dextran (0.2-2 mg/mL; Invitrogen, Carlsbad, Calif., USA) was added to HBEC mucosal surfaces as previously described (Tarran et al., Mol. Cell 8:149 (2001)). When added, peptides with or without 100 nM neutrophil elastase, 1 U/mL aprotinin, activated neutrophil supernatant (ANS) (Haynes et al., Am. J. Physiol. Heart Circ. Physiol. 294:H379 (2008)) or 10 μM sivelestat (Sigma-Aldrich, St Louis, Mo., USA) were added to the mucosal surface along with the Rhodamine dextran. Bumetanide (100 μM) was added to the serosal solution.

CF HBECs = settings: Ringer with 50 mM NaCl exchanged for 100 mM POPSO; 3 h
αβγENaC = biological target: T1, αβγENaC (Rattus norvegicus, UniProt P37089+P37090+P37091); assay: Amiloride-sensitive whole cell current, two electrode voltage clamp, Xenopus laevis oocytes expressing αβγENaC; assay type: cell-based; settings: PLUNC family member co-expressed with α,β,γ ENaC
T1 construct: expressed in transfected cells; host or cells: Xenopus laevis oocytes (cRNA injection)
T1 sequence (P37089 1-698): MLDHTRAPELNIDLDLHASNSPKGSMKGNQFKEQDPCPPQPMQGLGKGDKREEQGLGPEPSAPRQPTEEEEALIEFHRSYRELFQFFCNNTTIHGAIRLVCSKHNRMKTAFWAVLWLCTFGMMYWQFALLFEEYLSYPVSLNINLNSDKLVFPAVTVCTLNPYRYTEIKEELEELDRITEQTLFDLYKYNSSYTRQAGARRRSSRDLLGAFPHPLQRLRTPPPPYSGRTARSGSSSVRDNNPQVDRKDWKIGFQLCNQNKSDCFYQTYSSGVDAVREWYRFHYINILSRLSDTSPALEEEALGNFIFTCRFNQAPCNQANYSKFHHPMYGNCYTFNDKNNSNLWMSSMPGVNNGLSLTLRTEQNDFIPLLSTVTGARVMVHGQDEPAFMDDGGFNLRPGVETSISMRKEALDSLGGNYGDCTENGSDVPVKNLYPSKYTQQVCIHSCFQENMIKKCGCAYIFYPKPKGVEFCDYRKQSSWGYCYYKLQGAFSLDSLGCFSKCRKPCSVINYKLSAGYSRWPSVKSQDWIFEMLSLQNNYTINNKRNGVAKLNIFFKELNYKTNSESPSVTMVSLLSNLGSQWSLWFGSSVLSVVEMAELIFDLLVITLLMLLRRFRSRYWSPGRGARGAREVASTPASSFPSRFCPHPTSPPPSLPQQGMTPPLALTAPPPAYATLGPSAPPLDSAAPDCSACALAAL
T1 sequence (P37090 1-638): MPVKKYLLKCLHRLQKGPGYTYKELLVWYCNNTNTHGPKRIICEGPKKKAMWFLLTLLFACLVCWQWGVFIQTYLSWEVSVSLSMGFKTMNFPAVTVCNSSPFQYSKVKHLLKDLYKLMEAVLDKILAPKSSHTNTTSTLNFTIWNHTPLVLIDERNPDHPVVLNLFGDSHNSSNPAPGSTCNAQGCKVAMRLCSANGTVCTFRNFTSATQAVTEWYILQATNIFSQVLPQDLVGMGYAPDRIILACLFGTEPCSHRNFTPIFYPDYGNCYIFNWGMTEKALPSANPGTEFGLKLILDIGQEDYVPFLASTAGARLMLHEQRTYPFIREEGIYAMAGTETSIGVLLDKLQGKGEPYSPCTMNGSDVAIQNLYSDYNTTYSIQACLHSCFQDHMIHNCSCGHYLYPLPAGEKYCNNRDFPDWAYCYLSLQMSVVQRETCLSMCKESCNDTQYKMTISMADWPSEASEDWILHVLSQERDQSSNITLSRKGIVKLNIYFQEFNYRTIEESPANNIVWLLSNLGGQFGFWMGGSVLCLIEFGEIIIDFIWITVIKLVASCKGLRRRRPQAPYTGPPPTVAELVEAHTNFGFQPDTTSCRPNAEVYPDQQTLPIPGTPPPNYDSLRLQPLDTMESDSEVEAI
T1 sequence (P37091 1-650): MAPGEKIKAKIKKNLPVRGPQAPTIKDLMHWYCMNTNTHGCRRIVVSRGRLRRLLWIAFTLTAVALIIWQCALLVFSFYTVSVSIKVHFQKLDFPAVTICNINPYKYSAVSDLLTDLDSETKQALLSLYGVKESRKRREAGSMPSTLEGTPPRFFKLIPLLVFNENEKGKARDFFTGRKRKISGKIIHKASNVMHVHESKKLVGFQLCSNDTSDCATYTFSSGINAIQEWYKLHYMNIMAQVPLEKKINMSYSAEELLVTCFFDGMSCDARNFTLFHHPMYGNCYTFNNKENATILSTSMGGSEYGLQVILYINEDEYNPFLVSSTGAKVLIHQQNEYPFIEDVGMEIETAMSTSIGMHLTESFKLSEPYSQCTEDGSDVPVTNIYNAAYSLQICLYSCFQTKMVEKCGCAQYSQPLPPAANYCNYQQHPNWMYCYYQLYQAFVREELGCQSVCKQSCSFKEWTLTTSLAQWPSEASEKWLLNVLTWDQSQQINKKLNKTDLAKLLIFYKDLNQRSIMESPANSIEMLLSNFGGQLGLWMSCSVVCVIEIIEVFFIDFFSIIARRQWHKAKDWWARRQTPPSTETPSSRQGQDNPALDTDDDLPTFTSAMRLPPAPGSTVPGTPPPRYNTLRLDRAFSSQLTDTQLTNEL
Protocol: Xenopus laevis oocytes were harvested and injected as described (Donaldson, et al., J. Biol. Chem. 277:8338 (2002)). Defolliculated healthy stage V-VI oocytes were injected with 0.3 ng of CRNA of each ENaC subunit. Injected oocytes were kept in modified Barth's saline (in mM: 88 NaCl, 1 KCl, 2.4 NaHCO3, 0.3 Ca(NO3)2, 0.41 CaCl2, 0.82 MgSO4, and 15 HEPES, adjusted to pH 7.35 with Tris). Oocytes were studied 24 hr after injection using the two electrode voltage clamp technique as previously described (Donaldson, et al., J. Biol. Chem. 277:8338 (2002)). Oocytes were clamped at a holding potential of −60 mV. The change in amiloride-sensitive whole cell current as an indicator of ENaC activity was determined by subtracting the corresponding current value measured in the presence of 10 μM amiloride from that measured before the application of amiloride. Where appropriate, oocytes were incubated with G22-A39 or ABC for 1 h prior to recording. In some experiments β-ENaC^S518C was used which forms ENaCs that are locked into an open probability near 1.0 by exposure to the sulthydral reactive reagent [2-(Trimethyl-ammonium)ethyl]methanethiosulphonate bromide (MTSET). MTSET was added at a concentration of 1 mM to the oocyte bath as previously described (Snyder, J. Clin. Invest. 105: 45 (2000)).

## O=S(=O)(O)CC(O)CN1CCN(CC(O)CS(=O)(=O)O)CC1 (stereo not drawn) [POPSO, reference compound]
NL HBECs
  NL ASL height: no effect
CF HBECs
  CF ASL height: significantly elevated

B1: LPLUNC1: long PLUNC family member co-expressed in Xenopus oocytes (protein)
chain: TLSPTAVLILGPKVIKEKLTQELKDHNATSILQQLPLLSAMREKPAGGIPVLGSLVNTVLKHIIWLKVITANILQLQVKPSANDQELLVKIPLDMVAGFNTPLVKTIVEFHMTTEAQATIRMDTSASGPTRLVLSDCATSHGSLRIQLLHKLSFLVNALAKQVMNLLVPSLPNLVKNQLCPVIEASFNGMYADLLQLVKVPISLSIDRLEFDLLYPAIKGDTIQLYLGAKLLDSQGKVTKWFNNSAASLTMPTLDNIPFSLIVSQDVVKAAVAAVLSPEEFMVLLDSVLPESAHRLKSSIGLINEKAADKLGSTQIVKILTQDTPEFFIDQGHAKVAQLIVLEVFPSSEALRPLFTLGIEASSEAQFYTKGDQLILNLNNISSDRIQLMNSGIGWFQPDVLKNIITEIIHSILLPNQNGKLRSGVPVSLVKALGFEAAESSLTKDALVLTPASLWKPSSPVSQ
αβγENaC
  amiloride-sensitive ENaC current relative to control, co-expression: no significant ENaC current reduction
